{"source": "patent US20250186405A1", "about": "“Compound For Use In Treating Narcolepsy” (Alkermes, Inc., priority 2023, published 2025)", "key": {"[1]": {"assay": "Part 3 relative bioavailability (tablet vs powder-in-capsule) with food effect: plasma PK, 10 mg", "format": "in vivo, human", "conditions": "for increase of peak plasma concentration, fed vs fasted: 10 mg tablet; for AUC(0-inf) / half-life / Cmax / Tmax: human, plasma, oral", "procedure": "Part 3 compared the relative bioavailability (RelBA) of Compound A between a tablet formulation and the powder-in-capsule formulation. In addition, the food effect (FE) on the bioavailability of Compound A was assessed following administration of tablet formulation. Dose levels were as follows:\nThe Part 3 (RelBA with FE) evaluation was conducted using a 2-sequence, 3-period crossover study design in approximately 12 subjects. Subjects in Part 3 were randomized 1:1 to receive 1 of 2 sequences consisting of 3 periods with up to 72 hours of washout between treatments. The first 2 periods were dosed under fasted state and the third period was dosed in a fed state (high-fat meal).\nSequence 1 began with powder-in-capsule formulation in Period 1 (fasted), followed by tablet formulation in Period 2 (fasted) and tablet formulation in Period 3 (fed). Sequence 2 began with tablet formulation in Period 1 (fasted), followed by powder-in-capsule formulation in Period 2 (fasted) and tablet formulation in Period 3 (fed).\nIn treatment period(s) under the fed condition, following overnight fast, all subjects were given a high-fat breakfast. Within 30 minutes of starting the consumption of the breakfast, the assigned treatment was administered. […] There was a 72-hour washout period between the treatments.\nRelative bioavailability analysis: A mixed effects model was used to evaluate the effect of a tablet formulation on the PK of Compound A. The primary PK parameters, namely, Cmax, AUC0-t, and […], were logarithmically transformed and used as the dependent variable, with treatment (tablet formulation or powder-in-capsule) as a fixed effect, and subject as a random effect. The ratio of the geometric means of the 2 treatments was obtained from the analysis, and a 2-sided 90% CI for the ratio was estimated. In this comparison, the same dose level of Compound A administered under tablet formulation is the test and powder-in-capsule is the reference. Thus, the comparison of interest is as follows: Fasted in new formulation (Test) vs Fasted in powder-in-capsule (Reference).\nFood effect analysis: A mixed effects model was used to evaluate the effect of a high-fat, high caloric meal on the PK of Compound A in the tablet formulation. The primary PK parameters, namely, Cmax, AUC0-t, and AUC0-∞, were logarithmically transformed and used as the dependent variable, with treatment (fed or fasted) as a fixed effect, and subject as a random effect. The ratio of the geometric means of the 2 treatments was obtained from the analysis, and a 2-sided 90% CI for the ratio was estimated. In this comparison, the same dose level of Compound A administered under fed conditions is the test and Compound A administered under fasted conditions is the reference. Thus, the comparison of interest is as follows: Fed a high-fat meal in tablet formulation (Test) vs Fasted in tablet formulation (Reference).\nFood effect was studied following a high fat (cohort 1) and low fat (cohort 2) meal. Both cohorts were completed in independent studies. For cohort 1, a high-fat meal was served consisting of 800-1,000 total calories with 150 calories from protein, 250 calories from carbohydrates, 500-600 calories from fat (≥50 percent of calories from fat). For cohort 2, a low-fat meal was served consisting of 400-500 total calories with 100-125 calories from fat (25 percent of calories from fat)."}, "[2]": {"assay": "Part 4 NT1: plasma pharmacokinetics, single doses", "format": "in vivo", "conditions": "human, oral; for Cmax / AUC(0-t): geometric mean", "procedure": "(§1) Subjects were randomized to 1 of 4 sequences.\n(§2) Blood samples (up to 5 mL per sample) were collected for PK analysis of Compound A and its metabolite(s). The actual time of sample collection was recorded. The PK samples of the subjects randomized to placebo treatment were not analyzed. Any remaining plasma PK samples were used to explore the presence of any additional metabolites and/or biomarkers.\n(§3) Plasma and urine concentrations of Compound A and its metabolite(s) were measured using a validated high-performance liquid chromatography with tandem mass spectrometry.\n(§4) The PK population was used for summaries of plasma Compound A and its metabolite(s) concentrations and for analyses, summaries, and listing of PK parameters. Dose proportionality for Cmax, AUC0-t, and AUC0-∞ was evaluated using a linear model of logarithmically transformed values to assess the slope parameter, and the 95% CI for the slope was estimated. Where a 95% CI of the slope includes 1, it was considered as evidence of dose proportionality for that PK parameter."}, "[3]": {"test_system": "non-sleep deprived healthy volunteers", "assay": "Part 1 SAD: quantitative EEG (beta band power) and KSS biomarkers", "format": "in vivo, human", "conditions": "single doses, resting wakeful state", "procedure": "On Day −1, approximately 25 hours prior to study drug administration (on Day 1), baseline assessments for qEEG began and were collected for approximately 12 hours.\nAt time points within Part 1 of the study, qEEG assessment was performed. The subject remained still in a seated or supine position during the EEG acquisition time points. Each EEG acquisition continued for a total of 10 minutes: initial 5 minutes with eyes closed followed by 5 minutes with eyes open looking at a fixation point.\nThe PD parameters in the SAD evaluation (e.g., changes from baseline in QTcF, power of qEEG frequency bands, KSS) were summarized using descriptive statistics for each time point by dose level.\nAs discussed above in Example sections 4.10.3.2, 4.13.4, and 4.15.1, pharmacodynamic parameters in the SAD evaluation (e.g., changes from baseline in QTcF, power of qEEG frequency bands, KSS) were measured in non-sleep deprived healthy volunteers. […] The dots indicate the average post-dose measurements at each timepoint and the shaded areas show the confidence intervals. The data points representing Compound A cluster in the area associated with both higher beta power and increased alertness relative to placebo, with little overlap between the two groups."}, "[4]": {"assay": "Part 6 IH: plasma pharmacokinetics, single doses", "format": "in vivo, human", "conditions": "for Cmax / AUC(0-t) / Tmax: human, oral, plasma; for Cmax / AUC(0-t): geometric mean; for AUC(0-t): read-out: AUC0-24", "procedure": "Treatments were administered under fasted state. Dose levels were as follows:\nas §1, §2, §3, §4"}, "[5]": {"conditions": "10 mg, 10 mg Capsule (Fasted), Cohort 1, N = 9"}, "[6]": {"conditions": "10 mg, 10 mg Tablet (Fasted), Cohort 1, N = 8"}, "[7]": {"conditions": "10 mg, 10 mg Tablet (Fasted), Cohort 2"}, "[8]": {"conditions": "10 mg, 10 mg Tablet (Fasted), Cohort 2, N = 8"}, "[9]": {"conditions": "10 mg, 10 mg Tablet (Fed, high-fat), Cohort 1"}, "[10]": {"conditions": "10 mg, 10 mg Tablet (Fed, low-fat), Cohort 2"}, "[11]": {"conditions": "10 mg, 10 mg Tablet (Fed, low-fat), Cohort 2, N = 10"}}}
{"smiles": "CS(=O)(=O)N[C@H]1CCCN2C(=O)COc3ccccc3C3CCC(CC3)OCC12", "note": "(stereo partly drawn) [Compound A, N-[(4S,4aR,7α,10α)-1,2,3,4,4a,5,7,8,9,10,16,17-dodecahydro-17-oxo-7,10-ethanopyrido[1,2-d][1,7,4]benzodioxaazacyclotridecin-4-yl]methanesulfonamide]", "values": [{"measurement": "increase of peak plasma concentration, fed vs fasted", "setting": "[1]; high-fat meal, Cohort 1", "value": 3, "unit": "fold"}, {"measurement": "increase of peak plasma concentration, fed vs fasted", "setting": "[1]; low-fat meal, Cohort 2", "value": "approximately 2 fold"}, {"measurement": "AUC0-∞ ratio (tablet/capsule)", "setting": "[1]; 10 mg, fasted", "value": 1.2}, {"measurement": "Cmax ratio (tablet Cmax/capsule Cmax)", "setting": "[1]; 10 mg, fasted", "value": 0.9}, {"measurement": "AUC(0-inf)", "setting": "[1]; [5]", "value": 124, "unit": "ng·h/mL"}, {"measurement": "half-life", "setting": "[1]; [5]", "value": 10.8, "unit": "h"}, {"measurement": "Cmax", "setting": "[1]; 10 mg, 10 mg Capsule (Fasted), Cohort 1, geometric mean", "value": 11.8, "unit": "ng/mL"}, {"measurement": "Tmax", "setting": "[1]; 10 mg, 10 mg Capsule (Fasted), Cohort 1, median", "value": 2, "unit": "h"}, {"measurement": "AUC(0-inf)", "setting": "[1]; [6]", "value": 144, "unit": "ng·h/mL"}, {"measurement": "half-life", "setting": "[1]; [6]", "value": 11, "unit": "h"}, {"measurement": "Cmax", "setting": "[1]; 10 mg, 10 mg Tablet (Fasted), Cohort 1, geometric mean", "value": 10.8, "unit": "ng/mL"}, {"measurement": "Tmax", "setting": "[1]; 10 mg, 10 mg Tablet (Fasted), Cohort 1, median", "value": 3.5, "unit": "h"}, {"measurement": "Cmax", "setting": "[1]; [7]", "value": 14.2, "unit": "ng/mL"}, {"measurement": "Tmax", "setting": "[1]; [7]", "value": 2.5, "unit": "h"}, {"measurement": "AUC(0-inf)", "setting": "[1]; [8]", "value": 189, "unit": "ng·h/mL"}, {"measurement": "half-life", "setting": "[1]; [8]", "value": 9.22, "unit": "h"}, {"measurement": "AUC(0-inf)", "setting": "[1]; [9]", "value": 140, "unit": "ng·h/mL"}, {"measurement": "Cmax", "setting": "[1]; [9]", "value": 30.1, "unit": "ng/mL"}, {"measurement": "half-life", "setting": "[1]; [9]", "value": 2.8, "unit": "h"}, {"measurement": "Tmax", "setting": "[1]; 10 mg, 10 mg Tablet (Fed, high-fat), Cohort 1, median", "value": 3.5, "unit": "h"}, {"measurement": "Cmax", "setting": "[1]; [10]", "value": 32.1, "unit": "ng/mL"}, {"measurement": "Tmax", "setting": "[1]; [10]", "value": 3.01, "unit": "h"}, {"measurement": "AUC(0-inf)", "setting": "[1]; [11]", "value": 180, "unit": "ng·h/mL"}, {"measurement": "half-life", "setting": "[1]; [11]", "value": 9.69, "unit": "h"}, {"measurement": "Tmax", "setting": "[2]; 1 mg, NT1, 1 mg single dose, median, N = 3, read-out: Tmax", "value": 1.5, "unit": "h"}, {"measurement": "Tmax", "setting": "[2]; 3 mg, NT1, 3 mg single dose, median, N = 4, read-out: Tmax", "value": 1.5, "unit": "h"}, {"measurement": "Tmax", "setting": "[2]; 8 mg, NT1, 8 mg single dose, median, N = 3, read-out: Tmax", "value": 3, "unit": "h"}, {"measurement": "Tmax", "setting": "[2]; 8 mg, NT1, single dose 1, 3 and 8 mg (range 0.5 to 4.0), read-out: median Tmax", "value": 1.5, "unit": "h"}, {"measurement": "Cmax", "setting": "[2]; NT1, 1 mg single dose, N = 3", "value": 4.39, "unit": "ng/mL"}, {"measurement": "AUC(0-t)", "setting": "[2]; NT1, 1 mg single dose, N = 3, read-out: AUC0-24", "value": 19.5, "unit": "ng·h/mL"}, {"measurement": "Cmax", "setting": "[2]; NT1, 3 mg single dose, N = 4", "value": 11.6, "unit": "ng/mL"}, {"measurement": "AUC(0-t)", "setting": "[2]; NT1, 3 mg single dose, N = 4, read-out: AUC0-24", "value": 59.1, "unit": "ng·h/mL"}, {"measurement": "Cmax", "setting": "[2]; NT1, 8 mg single dose, N = 3", "value": 27.9, "unit": "ng/mL"}, {"measurement": "AUC(0-t)", "setting": "[2]; NT1, 8 mg single dose, N = 3, read-out: AUC0-24", "value": 169, "unit": "ng·h/mL"}, {"measurement": "qEEG beta band signal, change from baseline", "setting": "[3]", "value": "Dose-dependent increases in beta band signal were observed"}, {"measurement": "fold change in AUC and Cmax for 5-fold change in dose", "setting": "[4]; IH patients, 5 to 25 mg", "value": "approximately 3 fold"}, {"measurement": "Cmax", "setting": "[4]; 5 mg, IH, n = 7", "value": 11.8, "unit": "ng/mL"}, {"measurement": "AUC(0-t)", "setting": "[4]; 5 mg, IH, n = 7", "value": 78.9, "unit": "ng·h/mL"}, {"measurement": "Cmax", "setting": "[4]; 12 mg, IH, n = 7", "value": 18.1, "unit": "ng/mL"}, {"measurement": "AUC(0-t)", "setting": "[4]; 12 mg, IH, n = 7", "value": 156, "unit": "ng·h/mL"}, {"measurement": "Cmax", "setting": "[4]; 25 mg, IH, N = 8", "value": 32.2, "unit": "ng/mL"}, {"measurement": "AUC(0-t)", "setting": "[4]; 25 mg, IH, N = 8", "value": 230, "unit": "ng·h/mL"}, {"measurement": "Tmax", "setting": "[4]; 5 mg, IH, median, n = 7, read-out: Tmax", "value": 1.5, "unit": "h"}, {"measurement": "Tmax", "setting": "[4]; 12 mg, IH, median, n = 7, read-out: Tmax", "value": 3, "unit": "h"}, {"measurement": "Tmax", "setting": "[4]; 25 mg, IH patients, 5, 12, 25 mg, read-out: median tmax, range across doses", "value": "1.5 to 3", "unit": "h"}, {"measurement": "Tmax", "setting": "[4]; 25 mg, IH, median, N = 8, read-out: Tmax", "value": 1.5, "unit": "h"}]}
